Measured values as given in ChEMBL document CHEMBL1146045, “Design of novel, potent, and selective human beta-tryptase inhibitors based on alpha-keto-[1,2,4]-oxadiazoles” (Bioorg Med Chem Lett, 2006).
≈ marks a conversion by molar mass, not a printed value.

Columns and labels:
Coagulation factor VII = target: T1, Coagulation factor VII (Homo sapiens, UniProt P08709); assay: Inhibition of F7a
T1 sequence (P08709 whole entry): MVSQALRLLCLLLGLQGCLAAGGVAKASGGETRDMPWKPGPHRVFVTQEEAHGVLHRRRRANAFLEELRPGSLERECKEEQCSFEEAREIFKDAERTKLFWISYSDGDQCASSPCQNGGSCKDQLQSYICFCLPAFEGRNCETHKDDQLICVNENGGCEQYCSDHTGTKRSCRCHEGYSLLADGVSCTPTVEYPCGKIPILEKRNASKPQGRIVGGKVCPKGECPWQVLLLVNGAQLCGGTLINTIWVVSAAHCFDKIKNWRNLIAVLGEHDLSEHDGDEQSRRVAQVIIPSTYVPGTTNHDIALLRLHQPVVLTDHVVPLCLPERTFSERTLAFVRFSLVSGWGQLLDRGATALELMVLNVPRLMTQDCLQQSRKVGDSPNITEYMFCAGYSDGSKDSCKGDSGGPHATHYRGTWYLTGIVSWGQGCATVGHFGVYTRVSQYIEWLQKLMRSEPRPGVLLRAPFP

Coagulation factor X = Coagulation factor X (Homo sapiens, UniProt P00742); assay: Inhibition of F10a
Chain of Coagulation factor X (P00742 41-179 limits assumed): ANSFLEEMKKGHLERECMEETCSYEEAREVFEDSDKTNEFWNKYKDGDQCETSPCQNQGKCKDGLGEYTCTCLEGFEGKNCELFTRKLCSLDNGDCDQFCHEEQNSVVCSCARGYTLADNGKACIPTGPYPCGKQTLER
Chain of Coagulation factor X (P00742 235-488 limits assumed): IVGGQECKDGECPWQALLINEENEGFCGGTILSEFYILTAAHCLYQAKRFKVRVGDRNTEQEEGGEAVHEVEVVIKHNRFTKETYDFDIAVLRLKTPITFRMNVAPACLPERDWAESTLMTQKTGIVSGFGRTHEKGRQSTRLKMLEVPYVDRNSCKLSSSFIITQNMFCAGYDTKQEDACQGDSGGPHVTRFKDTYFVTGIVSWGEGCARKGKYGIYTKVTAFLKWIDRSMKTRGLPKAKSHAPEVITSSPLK

Trypsin = Trypsin (Homo sapiens, UniProt P07477+P07478+P35030); assay: Inhibition of human trypsin; type: protein assay
Prothrombin = Prothrombin (Homo sapiens, UniProt P00734); assay: Inhibition of thrombin
[1] = Stability in human liver microsome after 1 hr; type: ADME; conditions: liver microsomes, read-out: Stability
hERG (KCNH2) [2] = target: T2, hERG (KCNH2) (Homo sapiens, UniProt Q12809); assay: Inhibition of hERG at 10 uM; type: toxicity
T2 sequence (Q12809 whole entry): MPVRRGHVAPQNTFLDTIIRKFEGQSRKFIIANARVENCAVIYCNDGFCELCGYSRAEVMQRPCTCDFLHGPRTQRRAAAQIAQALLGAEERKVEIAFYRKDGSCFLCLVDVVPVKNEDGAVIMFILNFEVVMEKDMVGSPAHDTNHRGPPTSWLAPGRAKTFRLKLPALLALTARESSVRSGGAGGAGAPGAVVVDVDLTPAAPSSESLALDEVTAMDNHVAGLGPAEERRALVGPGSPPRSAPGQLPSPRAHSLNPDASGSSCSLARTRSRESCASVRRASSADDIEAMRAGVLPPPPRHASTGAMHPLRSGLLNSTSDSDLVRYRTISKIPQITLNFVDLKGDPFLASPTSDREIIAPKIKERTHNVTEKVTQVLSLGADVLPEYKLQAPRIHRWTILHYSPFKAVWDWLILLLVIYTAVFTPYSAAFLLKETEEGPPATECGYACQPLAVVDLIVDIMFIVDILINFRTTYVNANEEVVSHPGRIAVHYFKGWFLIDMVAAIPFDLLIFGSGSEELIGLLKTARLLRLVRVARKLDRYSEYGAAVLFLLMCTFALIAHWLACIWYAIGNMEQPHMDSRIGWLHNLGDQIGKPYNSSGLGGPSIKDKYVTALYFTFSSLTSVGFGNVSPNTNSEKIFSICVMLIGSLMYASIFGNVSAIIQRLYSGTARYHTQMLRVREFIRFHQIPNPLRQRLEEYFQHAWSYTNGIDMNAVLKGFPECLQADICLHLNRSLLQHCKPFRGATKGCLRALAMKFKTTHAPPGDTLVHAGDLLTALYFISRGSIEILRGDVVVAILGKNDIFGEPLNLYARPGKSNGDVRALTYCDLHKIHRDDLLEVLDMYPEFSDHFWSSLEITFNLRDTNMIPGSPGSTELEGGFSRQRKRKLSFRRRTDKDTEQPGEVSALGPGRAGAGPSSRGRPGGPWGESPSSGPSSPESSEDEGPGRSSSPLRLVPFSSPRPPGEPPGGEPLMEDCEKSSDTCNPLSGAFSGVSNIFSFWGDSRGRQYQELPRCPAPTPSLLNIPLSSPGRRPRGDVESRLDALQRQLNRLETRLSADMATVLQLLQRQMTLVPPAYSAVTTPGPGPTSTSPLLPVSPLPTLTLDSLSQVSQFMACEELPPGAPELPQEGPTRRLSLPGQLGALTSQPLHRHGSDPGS

Tryptase beta-1 = Tryptase beta-1 (Homo sapiens, UniProt Q15661); assay: Inhibition of human beta tryptase
Chain of Tryptase beta-1 (Q15661 whole entry): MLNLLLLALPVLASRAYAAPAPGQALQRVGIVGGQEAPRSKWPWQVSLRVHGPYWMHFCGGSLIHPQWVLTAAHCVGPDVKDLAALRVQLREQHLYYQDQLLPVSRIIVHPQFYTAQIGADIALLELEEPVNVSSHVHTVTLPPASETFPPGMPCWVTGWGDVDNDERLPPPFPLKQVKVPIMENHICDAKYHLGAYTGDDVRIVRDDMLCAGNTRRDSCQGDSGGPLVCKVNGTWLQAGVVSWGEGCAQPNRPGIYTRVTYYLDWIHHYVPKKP

[3] = Solubility at pH 7.4; type: physicochemical; conditions: buffer
hERG (KCNH2) [4] = target: T2, hERG (KCNH2); assay: Inhibition of hERG at 1 uM; type: toxicity

For `CCOC(=O)N[C@@H](CCCCN)C(=O)c1noc(Cc2ccc(C(=O)NC3Cc4ccccc4C3)cc2)n1`, the Ki (Coagulation factor VII) was greater than 150000 nM, the Ki (Coagulation factor X) was 140000 nM and the Ki (Trypsin) was 170 nM. The Ki (Prothrombin) was 60000 nM and the remaining at 1 h [1] was 64%.

Compound `NCCCC[C@H](NC(=O)OCc1ccccc1)C(=O)c1noc(Cc2ccc(C(=O)NCCc3cccs3)cc2)n1` has an inhibition at 10 µM (hERG (KCNH2) [2]) of 7.2%, a Ki (Trypsin) of 13 nM and a Ki (Tryptase beta-1) of 2.4 nM. For the same compound, the solubility [3] was 484 µM (≈ 279 µg/mL).

Compound `NCCCC[C@H](NC(=O)c1ccc(F)c(F)c1)C(=O)c1noc(Cc2ccc(C(=O)NCCc3cccc(Cl)c3)cc2)n1` has a Ki (Trypsin) of 440 nM, a Ki (Tryptase beta-1) of 1.7 nM and a solubility [3] of 349 µM (≈ 213 µg/mL).

Work on `NCCCC[C@H](NC(=O)OCc1ccccc1)C(=O)c1noc(Cc2ccc(C(=O)NCCc3cccc(C(F)(F)F)c3)cc2)n1` yielded a Ki (Trypsin) of 30 nM, a Ki (Tryptase beta-1) of 8.2 nM and a solubility [3] of 284 µM (≈ 181 µg/mL).

In the case of `NCCCC[C@H](NC(=O)OCc1ccccc1)C(=O)c1noc(Cc2ccc(OCCc3ccccc3)cc2)n1`, the inhibition at 1 µM (hERG (KCNH2) [4]) is reported as 40% and the solubility [3] is reported as 23 µM (≈ 12.5 µg/mL).

`NCCCC[C@H](NC(=O)OCc1ccccc1)C(=O)c1noc(Cc2ccc(C(=O)NCCc3ccc(C(F)(F)F)cc3)cc2)n1` showed a Ki (Trypsin) of 27 nM, a Ki (Tryptase beta-1) of 220 nM and a solubility [3] of 227 µM (≈ 145 µg/mL).

`NCCCC[C@H](NC(=O)OCc1ccccc1)C(=O)c1noc(Cc2ccc(C(=O)NCCc3ccc(Cl)c(Cl)c3)cc2)n1` showed a Ki (Trypsin) of 31 nM and a Ki (Tryptase beta-1) of 16 nM.

For `NCCCC[C@H](NC(=O)c1ccc2c(c1)OCO2)C(=O)c1noc(Cc2ccc(C(=O)NCCc3cccc(Cl)c3)cc2)n1`, the Ki (Trypsin) was 330 nM, the Ki (Tryptase beta-1) was 2.1 nM and the solubility [3] was 337 µM (≈ 208 µg/mL).

For `CC(C)(C)C(=O)N[C@@H](CCCCN)C(=O)c1noc(Cc2ccc(C(=O)NCCc3cccc(Cl)c3)cc2)n1`, the Ki (Trypsin) was 470 nM, the Ki (Tryptase beta-1) was 2 nM and the solubility [3] was 30 µM (≈ 16.6 µg/mL).

For `NCCCC[C@H](NC(=O)OCc1ccccc1)C(=O)c1noc(Cc2ccc(C(=O)NCCCc3ccccc3)cc2)n1`, the Ki (Trypsin) was 19 nM, the Ki (Tryptase beta-1) was 3 nM and the solubility [3] was 370 µM (≈ 216 µg/mL).

In the case of `NCCCC[C@H](NC(=O)OCc1ccccc1)C(=O)c1noc(Cc2ccc(C(=O)NCCc3cccc(Cl)c3)cc2)n1`, the Ki (Trypsin) is reported as 23 nM, the Ki (Tryptase beta-1) is reported as 1.8 nM and the solubility [3] is reported as 109 µM (≈ 65.8 µg/mL).

`NCCCC[C@H](NC(=O)OCc1ccccc1)C(=O)c1noc(CN2CCN(C(=O)CCc3ccccc3)CC2)n1` showed a Ki (Trypsin) of 33 nM and a Ki (Tryptase beta-1) of 230 nM.

Work on `COc1ccc(Cc2nc(C(=O)[C@H](CCCCN)NC(=O)OCc3ccccc3)no2)cc1` yielded a Ki (Trypsin) of 22 nM, a Ki (Tryptase beta-1) of 770 nM and a solubility [3] of 348 µM (≈ 157 µg/mL).

Compound `NCCCC[C@H](NC(=O)OCc1ccccc1)C(=O)c1noc(Cc2ccc(C(=O)NCCCCc3ccccc3)cc2)n1` has a Ki (Trypsin) of 14 nM, a Ki (Tryptase beta-1) of 60 nM and a solubility [3] of 188 µM (≈ 112 µg/mL).

`NCCCC[C@H](NC(=O)OCc1ccccc1)C(=O)c1noc(Cc2ccc(C(=O)NCc3ccc4ccccc4c3)cc2)n1` showed a Ki (Trypsin) of 15 nM, a Ki (Tryptase beta-1) of 11 nM and a solubility [3] of 100 µM (≈ 60.6 µg/mL).

For `CC(C)CCNC(=O)c1ccc(Cc2nc(C(=O)[C@H](CCCCN)NC(=O)OCc3ccccc3)no2)cc1`, the Ki (Trypsin) was 29 nM, the inhibition at 1 µM (hERG (KCNH2) [4]) was 0% and the Ki (Tryptase beta-1) was 9.9 nM. For the same compound, the solubility [3] was 364 µM (≈ 195 µg/mL).

For `NCCCC[C@H](NC(=O)OCc1ccccc1)C(=O)c1noc(CN2CCN(CCCCc3ccccc3)CC2)n1`, the Ki (Trypsin) was 12 nM, the remaining at 1 h [1] was 22% and the Ki (Tryptase beta-1) was 5.8 nM. For the same compound, the solubility [3] was 466 µM (≈ 262 µg/mL).

In the case of `NCCCC[C@H](NC(=O)c1cc(F)cc(F)c1)C(=O)c1noc(Cc2ccc(C(=O)NCCc3cccc(Cl)c3)cc2)n1`, the Ki (Trypsin) is reported as 410 nM, the Ki (Tryptase beta-1) is reported as 1.5 nM and the solubility [3] is reported as 313 µM (≈ 191 µg/mL).

`NCCCC[C@H](NC(=O)OCc1ccccc1)C(=O)c1noc(Cc2ccc(C(=O)NCCc3ccccc3)cc2)n1` showed a Ki (Trypsin) of 20 nM, a Ki (Tryptase beta-1) of 3.2 nM and a solubility [3] of 440 µM (≈ 251 µg/mL).

`NCCCC[C@H](NC(=O)c1cccc(F)c1)C(=O)c1noc(Cc2ccc(C(=O)NCCc3cccc(Cl)c3)cc2)n1` gave a Ki (Trypsin) of 280 nM, a Ki (Tryptase beta-1) of 1.7 nM and a solubility [3] of 422 µM (≈ 250 µg/mL).

With `NCCCC[C@H](NC(=O)OCc1ccccc1)C(=O)c1noc(Cc2ccc(C(=O)N3CCN(Cc4ccccc4F)CC3)cc2)n1` the Ki (Trypsin) was 3.7 nM, the Ki (Tryptase beta-1) was 140 nM and the solubility [3] was 472 µM (≈ 303 µg/mL).

Compound `NCCCC[C@H](NC(=O)OCc1ccccc1)C(=O)c1noc(Cc2ccc(C(=O)NCCOc3ccc(F)cc3)cc2)n1` has a Ki (Trypsin) of 11 nM, a Ki (Tryptase beta-1) of 2.9 nM and a solubility [3] of 299 µM (≈ 180 µg/mL).

With `NCCCC[C@H](NC(=O)OCc1ccccc1)C(=O)c1noc(CN2CCN(C(=O)CCCc3ccccc3)CC2)n1` the inhibition at 10 µM (hERG (KCNH2) [2]) was 2.3%, the Ki (Trypsin) was 22 nM and the remaining at 1 h [1] was 2%. The Ki (Tryptase beta-1) was 34 nM and the solubility [3] was greater than 500 µM.

`NCCCC[C@H](NC(=O)OCc1ccccc1)C(=O)c1noc(CN2CCN(C(=O)OCc3ccccc3)CC2)n1` gave a Ki (Trypsin) of 42 nM and a Ki (Tryptase beta-1) of 470 nM.

Work on `NCCCC[C@H](NC(=O)c1ccc(Cl)cc1)C(=O)c1noc(Cc2ccc(C(=O)NCCc3cccc(Cl)c3)cc2)n1` yielded a Ki (Trypsin) of 330 nM and a Ki (Tryptase beta-1) of 1.9 nM.

For `NCCCC[C@H](NC(=O)c1ccc(F)cc1)C(=O)c1noc(Cc2ccc(C(=O)NCCc3cccc(Cl)c3)cc2)n1`, the Ki (Trypsin) was 240 nM, the Ki (Tryptase beta-1) was 1.8 nM and the solubility [3] was 390 µM (≈ 231 µg/mL).

In the case of `NCCCC[C@H](NC(=O)OCc1ccccc1)C(=O)c1noc(Cc2ccc(C(=O)NC3Cc4ccccc4C3)cc2)n1`, the Ki (Coagulation factor VII) is reported as 140000 nM, the Ki (Coagulation factor X) is reported as 100000 nM and the Ki (Trypsin) is reported as 21 nM. It also gave a Ki (Prothrombin) of 48000 nM, a Ki (Tryptase beta-1) of 3.7 nM and a solubility [3] of 206 µM (≈ 120 µg/mL).

Compound `NCCCC[C@H](NC(=O)OCc1ccccc1)C(=O)c1noc(Cc2ccc(C(=O)NCc3cccc4ccccc34)cc2)n1` has a Ki (Trypsin) of 26 nM, a Ki (Tryptase beta-1) of 13 nM and a solubility [3] of 77.2 µM (≈ 46.8 µg/mL).

With `NCCCC[C@H](NC(=O)OCc1ccccc1)C(=O)c1noc(Cc2ccc(C(=O)NC/C=C/c3ccccc3)cc2)n1` the Ki (Trypsin) was 18 nM, the Ki (Tryptase beta-1) was 3.6 nM and the solubility [3] was 226 µM (≈ 131 µg/mL).

With `Cc1ccc(CNC(=O)c2ccc(Cc3nc(C(=O)[C@H](CCCCN)NC(=O)OCc4ccccc4)no3)cc2)cc1C` the Ki (Trypsin) was 34 nM, the Ki (Tryptase beta-1) was 39 nM and the solubility [3] was 245 µM (≈ 143 µg/mL).

`NCCCC[C@H](NC(=O)OCc1ccccc1)C(=O)c1noc(CN2CCN(CCCc3ccccc3)CC2)n1` gave a Ki (Tryptase beta-1) of 11 nM and a solubility [3] of 329 µM (≈ 181 µg/mL).

In the case of `CCOC(=O)N[C@@H](CCCCN)C(=O)c1noc(Cc2ccc(C(=O)NCCc3cccc(Cl)c3)cc2)n1`, the Ki (Trypsin) is reported as 180 nM, the Ki (Tryptase beta-1) is reported as 1.9 nM and the solubility [3] is reported as 471 µM (≈ 255 µg/mL).

In the case of `NCCCC[C@H](NC(=O)OCc1ccccc1)C(=O)c1noc(Cc2ccc(C(=O)NCc3ccccc3)cc2)n1`, the Ki (Trypsin) is reported as 23 nM, the Ki (Tryptase beta-1) is reported as 37 nM and the solubility [3] is reported as 459 µM (≈ 255 µg/mL).

`NCCCC[C@H](NC(=O)OCc1ccccc1)C(=O)c1noc(Cc2ccc(C(=O)NCCc3cc(F)cc(F)c3)cc2)n1` showed a Ki (Trypsin) of 18 nM, a Ki (Tryptase beta-1) of 3.5 nM and a solubility [3] of 333 µM (≈ 202 µg/mL).
